From patent US20080227853A1, “ANDROGENE MEMBRANE RECEPTOR AGONIST” (BIONATURE E. A. LIMITED, priority 2007, published 2008)

These compounds were tested on T47D human breast cancer cells (assay: Actin cytoskeleton modification in T47D cells (rhodamine-phalloidin staining)). Conditions: T47D cells incubated 24 hours, FIG. 3.
Type: cell-based
For Oc1cc(O)c2c(c1)O[C@H](c1ccc(O)c(O)c1)[C@H](O)[C@H]2c1c(O)cc(O)c2c1O[C@H](c1ccc(O)c(O)c1)[C@H](O)C2 [B2], the “modifications of the actin cytoskeleton” value was “polymerization and sub-membrane redistribution”. With Oc1cc(O)c2c(c1)O[C@H](c1ccc(O)c(O)c1)[C@H](O)[C@H]2c1c(O)cc2c(c1O)C[C@@H](O)[C@@H](c1ccc(O)c(O)c1)O2 [B5] the “modifications of the actin cytoskeleton” value was “polymerization and sub-membrane redistribution”. With catechin the “modifications of the actin cytoskeleton” value was “polymerization and sub-membrane redistribution”.
